Values joined by “and” are separate entries in the source; they are usually repeats but may differ in a detail not shown here. Equal values may be shown once. Active and inactive are the calls of the source.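 The calls were made as follows: active = compounds giving half or more protection of infected cells from virus-caused growth loss, again on retest; inactive = the rest.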 *1 amine or outer side, *2 acyl side, *3 side chain or, on linkers, in order; H or OH if unused. Where a SMILES comes first, the peptide text is derived from it. Bridges are numbered along the chain shown (N, C = ends). The star is where a group is joined. Cbz = O=C(OCc1ccccc1)*; CO = O=C([*:1])[*:2]
Test system: CEM cells HIV-1 protection, formazan growth assay
Assay: NCI AIDS Antiviral Assay
Settings: for IC50: measured here: growth of uninfected CEM cells
In short: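 Human CEM cells, uninfected and HIV-1-infected, received five drug concentrations, and growth was read by soluble formazan assay. Compounds giving at least 50% protection were retested; reproducible 100% protection defined confirmed active.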

Row | Structure (SMILES) | EC50 [µM] | IC50 | outcome
1 | C/C(=N\NC(=O)c1ccncc1)c1sc(-n2nc(-c3ccccc3)cc2-c2ccccc2)nc1C | > 11 | > 11 µM | 
2 | COc1cc2[nH]c3c(c2cc1OC)CCN[C@]31CC[C@]2(CC3c4c(cc(OC)c(O)c42)CCN3C)C[C@H]1OC (some centres undefined) |  |  | inactive
3 | CC(=S)N=Cc1c(O)cc(C)oc1=O | > 200 | > 200 µM | 
4 | CCN(CC)C(=S)SS(=O)(=O)c1ccccc1[N+](=O)[O-] | > 200 | 7.24 µM | 
5 | OC(C#CCN1CCCC1)(c1ccccc1)c1ccccc1Cl.[C-]#[O+].[C-]#[O+].[C-]#[O+].[C-]#[O+].[C-]#[O+].[C-]#[O+].[Co].[Co] (centres undefined) | > 200 | 5.25 µM | 
6 | CC1Cc2c([nH]c3ccccc3c2=O)O1 (centres undefined) | > 1230 | 724 µM | 
7 | COC(=O)C(CCC(=O)O)N1C(=O)c2ccccc2C1=O (centres undefined) | > 200 | > 200 µM | 
8 | O=C1NCCCCC1CCCC#Cc1ccccc1 (centres undefined) | > 74.1 | 45.7 µM | 
9 | Cc1ccc(S(=O)(=O)NC(=O)NN2CCCCCC2)cc1 | > 200 | > 200 µM | 
10 | CC(=O)c1c(O)cc(O)c(-c2c(C)cc(O)c3c2C(=O)c2cccc(O)c2C3=O)c1O | > 200 | 25.7 µM | 
11 | Cn1ncc(NCCn2cnc3c2c(=O)n(C)c(=O)n3C)c(Cl)c1=O | > 200 | > 200 µM | 
12 | Cc1cc(N(CCC#N)CCC#N)ccc1/C=C1N=C(/C=C\c2ccccc2)N(NC(=O)CC(=O)Nc2ccccc2Cl)C\1=O |  |  | inactive
13 | O=C(O)CC[P+](c1ccccc1)(c1ccccc1)c1ccccc1 | > 200 | 21.9 µM and > 200 µM | 
14 | CN(CCc1ccccn1)c1nc(=[N+](C)C)ss1 |  |  | inactive
15 | O=C(O)c1ccccc1/C=N\NC1=NCCCCN1 | > 200 | > 200 µM | 
16 | O=C1OC2CCCC1O2 (centres undefined) | > 200 | > 200 µM | 
17 | O=c1c2ccccc2c2nc3ccccc3nc2n1C1CCCCC1 |  |  | inactive
18 | CN(c1nc(=[N+](C)C)ss1)C1CCCCC1 |  |  | inactive
19 | Cc1ccc(N=Nc2c(N)nn3cc4c(nc23)-c2ccccc2CC4)cc1 | > 100 | > 100 µM | 
20 | CC(=O)OCC1OC(n2c(C)c(N=Nc3ccccc3)c(C)c(C#N)c2=S)C(OC(C)=O)C(OC(C)=O)C1OC(C)=O (centres undefined) | > 200 | > 200 µM | 
21 | CCOC(=O)C(C(=O)OCC)=S1c2ccccc2Sc2ccccc21 | > 200 | > 200 µM | 
22 | O=c1c2cc([N+](=O)[O-])cnc2sn1-c1ccc(Oc2ccccc2)cc1 | 37.2 | 43.7 µM | 

Row | Structure (SMILES) | EC50 [µM] | IC50 | outcome
23 | CCOC(=O)C(C(=O)OCC)C(C(=O)OCC)C(=O)OCC | > 200 | > 200 µM | 
24 | CN(C)C1=NC2=S(SC(Nc3ccccc3)=N2)S1 (centres undefined) |  |  | inactive
25 | C=[N+](CNC(=O)CNC(=O)C(Cc1ccccc1)NC(=O)OC(C)(C)C)C(=O)CNC(=O)C(Cc1ccccc1)NC(=O)OC(C)(C)C (centres undefined) | > 100 | > 100 µM | 
26 | CC1C(=O)c2cc3c(cc2CCN(C)Cc2c1ccc1c2OCO1)OCO3 (centres undefined) | > 70.8 | > 70.8 µM | 
27 | COc1cc(-c2[nH]ncc2CCCC(=O)Nc2ccccc2[N+](=O)[O-])ccc1O |  |  | inactive
28 | COC(=O)N1C=NC2C3(C)C(C)=C(C)C3(C)C21C (centres undefined) | > 263 | 151 µM | 
29 | Cc1cc(N(CCC#N)S(=O)(=O)c2ccccc2)ccc1C=Nc1ccc(C(=O)O)cc1 | > 151 | 85.1 µM | 
30 | Cc1sc2nc3n(c(=O)c2c1C)N=CN(c1ccccc1)C3 | > 100 | > 100 µM | 
31 | COC(=O)C1CCC(=O)NCCCCC(NC(=O)OCc2ccccc2)C(=O)N1 (stereo not drawn) (Cbz-Lys-Glu-OMe; lactam 1-2; configuration not given here) | > 200 | > 200 µM | 
32 | CN(C)CCC(=O)N1C/C(=C/c2ccccc2)C(=O)/C(=C\c2ccccc2)C1 | > 17.4 | 0.339 µM | 
33 | CCOC(=O)/C(=C/c1ccc(OCc2ccccc2)cc1)P(=O)(OCC)OCC | > 44.7 | 4.27 µM | 
34 | Cc1cc2c(c3ncccc13)OCN(Cc1ccc(Cl)cc1)C2 | > 200 | 1.07 µM | 
35 | CN(C)CCNc1ncnc2nc(-c3ccccc3)c(-c3ccccc3)nc12 | > 200 | 112 µM | 
36 | CN(C)C(=O)C(NCCO)c1ccccc1 (centres undefined) | > 200 | 74.1 µM | 
37 | CC1(O)CC2C(CC1SC1CC3C(CC1(C)O)C3(C)C)C2(C)C (centres undefined) | > 200 | > 200 µM | 
38 | C(=C/c1ccnc2ccccc12)/c1cccs1 | 0.0631 | 47.9 µM | 
39 | O=C(CN1CCCC1=O)CS(=O)(=O)c1ccccc1 | > 891 | > 891 µM | 
40 | CC(C)=CCC/C(C)=C/COC(=O)N(c1ccccc1)c1ccccc1 | > 200 | > 200 µM | 
41 | Cn1c(=O)c2nc(-c3ccccc3)nnc2n(C)c1=O | > 200 | 93.3 µM | 
42 | O=C(O)C12C=CC(C1)c1ccccc12 (centres undefined) | > 251 | > 251 µM | 
43 | CC(=O)OC1OC(=O)C(C)(C(C)=O)C1C (centres undefined) |  |  | inactive
44 | c1ccc(CNCCCCNCCCNCc2ccccc2)cc1 | > 200 | 13.8 µM | 

Row | Structure (SMILES) | EC50 [µM] | IC50 | outcome
45 | CCc1ccc(Nc2cc(=O)n(C)c(SCc3ccccc3)n2)cc1 | > 200 | > 200 µM | 
46 | CCOCC(C)(CO)CC(C)CO (centres undefined) | > 200 | > 200 µM | 
47 | N[C@@H](CSS[C@H](C(=O)O)[C@@H](SSC[C@H](N)C(=O)O)C(=O)O)C(=O)O | > 200 | 35.5 µM | 
48 | CCOP(=O)(OCC)C(N)C(C)C (centres undefined) | > 513 | > 513 µM | 
49 | N#C/C(=C\NC(=S)C(N)=S)C(=O)c1ccc2ccccc2c1 | > 200 | 58.9 µM | 
50 | C[C@]12CCC(=O)C=C1CC[C@@H]1C2CC[C@]2(C)Nc3[nH]ncc3CC12 (some centres undefined) |  |  | inactive
51 | COc1cc2c(cc1OC)Cc1cc(OC)c(OC)cc1Cc1cc(OC)c(OC)cc1C2 |  |  | inactive
52 | COC(=O)[C@H](Cc1ccccc1)NC(=O)N[C@@H](C)C(=O)N[C@H](C(=O)N[C@H](C=O)Cc1ccccc1)C(C)C ({OMe-Phe-CO}-Ala-Val-Phe-aldehyde) | > 200 | 4.79 µM | 
53 | COC1=CC23C=CC1[C@@H](c1ccccc1)C2=C(C)C(=O)N3C(=O)NC1CCCCC1 (some centres undefined) | > 12.9 | > 12.9 µM | 
54 | CNc1ncnc2c1cnn2CCCCO | > 200 | > 200 µM | 
55 | CC1C(=O)NC(=O)NC1=O | > 200 | > 200 µM | 
56 | Cc1ccc(NC(=O)c2c(NC(=O)CN3CCOCC3)c(C#N)c3n2CCC3)cc1 | > 200 | > 200 µM | 
57 | CCCCCCCCCCCC1OC[C@H]2O[C@@H](n3cc(C)c(=O)[nH]c3=O)C[C@H]2N1O (some centres undefined) | > 200 | 21.9 µM | 
58 | Cc1cc(S(=O)(=O)O)c(NC(=O)C(=O)Cc2cc(=O)oc3cc(O)ccc23)cc1Cl | > 79.4 | > 79.4 µM | 
59 | CC(=O)OCC1(CNc2nc(N)ncc2C#N)CC(CCc2ccccc2)C1 (centres undefined) | > 200 | 17.4 µM | 
60 | Cc1ccc(-c2c(C#N)c(-c3ccccc3)c(C#N)c(=O)n2NS(=O)(=O)c2ccccc2)cc1 | > 200 | 69.2 µM | 
61 | O=C1/C(=C/c2ccccc2Cl)CCc2ccccc21 | > 10 | > 10 µM | 
62 | Cn1cnc([N+](=O)[O-])c1Sc1nc2ccc([N+](=O)[O-])cc2[nH]1 | > 81.3 | 7.76 µM | 
63 | CC1=Nc2ccc([N+](=O)[O-])cc2N=C(C)C1 | > 200 | > 200 µM and 126 µM | 
64 | O=C1OC(=O)C2=C1C(c1cccs1)C=C(c1cccnc1)N2c1ccncc1 (centres undefined) | > 200 | 9.77 µM | 
65 | Cn1cnc2[nH]c(=O)n(OS(=O)(=O)c3ccccc3)c(=O)c21 | > 195 | 151 µM | 
66 | O=C1c2ccccc2C(=O)c2c1ccc1c2[nH]c2ccccc21 |  |  | inactive

Row | Structure (SMILES) | EC50 [µM] | IC50 | outcome
67 | CCOC(=O)CCc1cn2cc(Br)nc(OC)c2n1 | > 200 | 25.1 µM | 
68 | Cl/C(N=Nc1ccccc1)=N/Nc1ccccc1 |  |  | inactive
69 | Clc1ccc(C2SCc3nc4ccccc4n32)cc1Cl (centres undefined) |  |  | inactive
70 | O=C1OC(O)C(Oc2c(Cl)cccc2Cl)=C1Cl (centres undefined) | > 40.7 | 19.1 µM | 
71 | O=C1Oc2ccccc2[C@@H]2[C@H]1[C@@H]1C(=O)Oc3ccccc3[C@@H]12 | > 46.8 | > 46.8 µM | 
72 | Cn1ncc2c(N(N)CCO)nc(-c3ccc([N+](=O)[O-])o3)nc21 | > 200 | 10.7 µM | 
73 | CCN(CC)c1c(-c2ccccc2)nnc2c3ccccc3nn12 | > 200 | 24 µM | 
74 | COc1ccc(Cc2c3cc(O)c(=O)cc-3ccn2C)cc1 | > 33.9 | 6.46 µM | 
75 | Cc1cc(=O)c2c(ccc3c(=O)cc(C)[nH]c32)[nH]1 | > 257 | 240 µM | 
76 | COC/C=C\[C@]1(O)CCCC[C@@H]1CC(OC)OC | > 200 | 30.9 µM | 
77 | COc1ccc(/C=C2\CN(C)CC3C2=NC(=S)NC3c2ccc(OC)cc2)cc1 (centres undefined) | > 200 | 6.61 µM | 
78 | O=C(O)/C(Cl)=C(/Cl)C(=O)Nc1cccc(Cl)c1 |  |  | inactive
79 | O=C(OC[C@H]1O[C@@H](OC(=O)c2cc(O)c(O)c(O)c2)[C@H](OC(=O)c2cc(O)c(O)c(O)c2)[C@@H](OC(=O)c2cc(O)c(O)c(O)c2)[C@@H]1OC(=O)c1cc(O)c(O)c(O)c1)c1cc(O)c(O)c(O)c1 | > 132 | 21.4 µM | 
80 | CCN1C(=NCCO)NS(=O)(=O)c2ccccc21 | > 200 | > 200 µM | 
81 | Cn1c(NC(=O)C(=O)NC23CC4CC(CC(C4)C2)C3)nc2ccccc21 |  |  | inactive
82 | O=C(c1ccc(OC(=O)c2ccccc2O)cc1)c1ccc(OC(=O)c2ccccc2O)cc1 |  |  | inactive
83 | COc1cc2c(c(OC)c1OC)C(=O)C1C2N1C(=O)CCCCl (centres undefined) | > 200 | > 200 µM | 
84 | O=C(CCCC[n+]1ccccc1)Sc1ccccc1C(=O)NCc1ccc2c(c1)OCO2 | > 200 | 3.02 µM | 
85 | C=C(C)CN(CC(=C)C)C(=N)OCC1CCCO1 (centres undefined) | > 200 | > 200 µM | 
86 | COc1cc(/C=C2\SC(=S)N(/C=C/c3nc4ccccc4[nH]c3=O)C2=O)cc(OC)c1OC | > 200 | 18.2 µM | 
87 | NC(N)=NCCCC(NCc1c2ccccc2[n+]([O-])c2ccccc12)C(=O)O (centres undefined) |  |  | inactive
88 | CCCCN(CCCC)C1CCC(Nc2ccnc3cc(Cl)ccc23)CC1 (centres undefined) | > 200 | 25.7 µM | 
